US10168338B2, “Methods of identifying modulators of sestrin-gator-2 interaction for modulating mTORC1 activity” (Whitehead Institute for Biomedical Research, priority 2014, dated 2019)

How the values were obtained:
Sestrin2-GATOR2 complex = target: T1, Sestrin2-GATOR2 complex (Homo sapiens, UniProt P58004); assay: Amino acids added directly to immunopurified Sestrin2-GATOR2 complexes (immunoblot); type: binding
T1 construct: To isolate the FLAG-WDR24/endogenous-Sestrin2 complex; endogenous in cells; host or cells: HEK-293T cells stably expressing FLAG-WDR24; Sestrin2 and the other GATOR2 subunits are endogenous
T1 sequence (P58004 1-480): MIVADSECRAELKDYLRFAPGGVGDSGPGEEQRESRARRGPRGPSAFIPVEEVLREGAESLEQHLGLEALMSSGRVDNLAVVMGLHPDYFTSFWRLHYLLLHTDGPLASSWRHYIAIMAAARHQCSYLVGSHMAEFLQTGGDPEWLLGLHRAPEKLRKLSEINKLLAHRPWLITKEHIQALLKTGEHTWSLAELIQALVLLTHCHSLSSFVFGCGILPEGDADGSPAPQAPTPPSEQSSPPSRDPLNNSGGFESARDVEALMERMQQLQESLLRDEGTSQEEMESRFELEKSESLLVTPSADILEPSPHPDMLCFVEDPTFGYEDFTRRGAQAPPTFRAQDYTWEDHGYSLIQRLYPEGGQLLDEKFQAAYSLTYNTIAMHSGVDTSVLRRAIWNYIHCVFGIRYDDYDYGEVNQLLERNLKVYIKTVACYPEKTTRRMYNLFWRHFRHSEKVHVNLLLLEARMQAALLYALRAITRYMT
Procedure: We next tested if leucine acts directly on the Sestrin2-GATOR2 complex.
HEK-293T cells stably expressing FLAG-WDR24 were starved for all amino acids for 50 minutes, lysed and subjected to anti-FLAG immunoprecipitation as described previously. The GATOR2-Sestrin2 complexes immobilized on the agarose beads were washed twice in lysis buffer with 500 mM NaCl, as previously described, and then incubated for 10 minutes in 1 mL of cytosolic buffer with the indicated concentrations of individual amino acids. The amount of GATOR2 and Sestrin2 that remained bound was assayed by SDS-PAGE and immunoblotting as described previously.

Sestrin2 = target: T2, Sestrin2 (Homo sapiens, UniProt P58004); assay: [3H]-labeled amino acid binding to FLAG-Sestrin2 immunoprecipitated from HEK-293T cells
T2 construct: expressed in transfected cells; host or cells: HEK-293T, transient transfection of a pRK5-based cDNA plasmid, anti-FLAG immunoprecipitation
T2 sequence (P58004 1-480): T1 sequence (P58004 1-480)
Procedure: Four million HEK-293T cells were plated in a 15 cm plate four days prior to the experiment. Each plate yielded the protein for one sample. Forty-eight hours after plating, the cells were transfected via the polyethylenimine method (O. Boussif et al., PNAS (USA), 92:7297-7301 (1995)) with the pRK5-based cDNA expression plasmids indicated in the figures in the following amounts: 5 μgFLAG-Sestrin2; 12 μg of the negative control Rap2A; 5 μg WDR24; 2 μg WDR24 with 4 μg each of HA-Seh1L, HA-Sec13, HA-Mios, and HA-WDR59; 12 […] (CG11299-PD); 12 μgFLAG-Sestrin1.1; 12 μg FLAG-Sestrin1.2; 12 μg FLAG-Sestrin3; 12 μg FLAG-Sestrin2 mutants (L261A, E451A, S190A) and up to 20 μg total DNA with empty-PRK5. Forty-eight hours after transfection cells were lysed as described in Example 1. If multiple samples of the same type were represented in the experiment, the cell lysates were combined, mixed, and evenly distributed amongst the relevant tubes, to ensure equal protein amounts across samples of the same type.
Anti-FLAG immunoprecipitates were prepared as previously described, with the exception that, prior to incubation with lysates, the beads were blocked by rotating in 1 μg/μl bovine serum albumin (BSA) for 20 minutes at 4° C. and subsequently washed twice in lysis buffer. Thirty μl of the 50/50 slurry of beads in lysis buffer was added to each of the clarified cell lysates and incubated as previously described in Example 1.
For the binding assays, two tubes at a time were washed as previously indicated for immunoprecipitations. All the liquid was subsequently aspirated and a 15 μl aliquot of proteins bound to the beads was incubated for one hour on ice in cytosolic buffer (0.1% Triton, 40 mM HEPES pH 7.4, 10 mM NaCl, 150 mM KCl, 2.5 mM MgCl2) with the appropriate amount of [^3H]-labeled amino acids and unlabeled amino acids. Tubes were flicked every five minutes. At the end of one hour, the beads were briefly spun down, aspirated dry, and rapidly washed three times with binding wash buffer (0.1% Triton, 40 mM HEPES pH 7.4, 150 mM NaCl). The beads were aspirated dry again and resuspended in 85 μl of binding wash buffer. With a cut tip, each sample was mixed well and three 10 μl aliquots were separately quantified using a TriCarb® scintillation counter (PerkinElmer). This process was repeated in pairs for each sample, to ensure similar incubation and wash times for all samples analyzed across different experiments.
Amino acid affinities to Sestrin2 were determined by first normalizing the bound [^3H]-labeled amino acid concentrations across three separate binding assays performed with varying amounts of unlabeled amino acid competition. These values were plotted and fit to a hyperbolic equation ([…]) to estimate the IC50 value. Kd or Ki values were derived from the IC50 value using the equation: Kd or Ki=IC50/(1+([[^3H]Leucine])/Kd).

[1] = target: T3, bacterially-produced Sestrin2 (Homo sapiens, UniProt P58004); assay: Thermal shift (protein melting) assay; type: binding; conditions: Sestrin2 at 4 μM, Sypro orange; read-out: shift of the melting temperature of Sestrin2
T3 construct: made in house; host or cells: Escherichia coli BL21 DE3 star
T3 sequence (P58004 1-480): T1 sequence (P58004 1-480)
Procedure: Specific binding of leucine to the bacterially produced Sestrin2 was further confirmed by thermal shift assays. The thermal shift (protein melting) assays were performed according to the LightCycler® 480 instruction manual. Briefly, for Sestrin2, 5× Sypro® orange dye and Sestrin2 at 4 μM were combined with or without leucine or arginine (at the indicated concentrations) in thermal shift buffer (100 mM Tris pH 7.4, 100 mM NaCl, and 1 mM DTT) in a volume of up to 10 μl in one well of a LightCycler® Multiwell 384-well plate. 20× Sypro® orange dye was used for the two control proteins, human choline acetyltransferase (ChAT) (at 4 μM) or Physconitrella patens hydroxycinnamoyl transferase (PpHCT) (at 2.5 μM). Each condition was tested in triplicate. The plate was subjected to a protocol in which the temperature increased from 20° to 85° C. at 0.06° C./second. Fluorescence was recorded and plotted over time, and melting temperatures were calculated as described in the LightCycler® 480 instruction manual. Briefly, the negative first derivative of the curve shown (change in fluorescence/change in temperature) was plotted against the temperature. The peak (i.e., lowest point on this curve) reflects the melting temperature. Each reported melting temperature is the mean±SD for three replicates from one experiment.

CC(C)C[C@H](N)C(=O)O [leucine]
effect on the Sestrin2-GATOR2 interaction in vitro (Sestrin2-GATOR2 complex; 300 μM each, added directly to FLAG immunoprecipitates): disrupted the interaction | EC50 (Sestrin2-GATOR2 complex; added to purified complexes from amino acid-starved cells, equilibrium not attained, relative potency only, read-out: half maximal effect on disruption of the Sestrin2-GATOR2 complex): ~1 µM | binding of radiolabeled amino acid to Sestrin2 (Sestrin2; FLAG-Sestrin2 from HEK-293T, competed by excess unlabeled leucine): bound to Sestrin2 | Kd (Sestrin2; competition with unlabeled leucine, 10 μM 3H-leucine, three experiments): 20 ± 5 µM | ΔTm [1]: ≤ 8.5 °C
